In ChEMBL document CHEMBL1150977, “A quantitative analysis of kinase inhibitor selectivity” (Nat Biotechnol, 2008):

How the values were obtained:
[1] = biological target: Ribosomal protein S6 kinase alpha-3 (Homo sapiens, UniProt P51812)
[2] = biological target: Mitogen-activated protein kinase 14 (Homo sapiens, UniProt Q16539)
Myosin-IIIb = biological target: T1, Myosin-IIIb (Homo sapiens, UniProt Q8WXR4)
T1 sequence (Q8WXR4 whole entry): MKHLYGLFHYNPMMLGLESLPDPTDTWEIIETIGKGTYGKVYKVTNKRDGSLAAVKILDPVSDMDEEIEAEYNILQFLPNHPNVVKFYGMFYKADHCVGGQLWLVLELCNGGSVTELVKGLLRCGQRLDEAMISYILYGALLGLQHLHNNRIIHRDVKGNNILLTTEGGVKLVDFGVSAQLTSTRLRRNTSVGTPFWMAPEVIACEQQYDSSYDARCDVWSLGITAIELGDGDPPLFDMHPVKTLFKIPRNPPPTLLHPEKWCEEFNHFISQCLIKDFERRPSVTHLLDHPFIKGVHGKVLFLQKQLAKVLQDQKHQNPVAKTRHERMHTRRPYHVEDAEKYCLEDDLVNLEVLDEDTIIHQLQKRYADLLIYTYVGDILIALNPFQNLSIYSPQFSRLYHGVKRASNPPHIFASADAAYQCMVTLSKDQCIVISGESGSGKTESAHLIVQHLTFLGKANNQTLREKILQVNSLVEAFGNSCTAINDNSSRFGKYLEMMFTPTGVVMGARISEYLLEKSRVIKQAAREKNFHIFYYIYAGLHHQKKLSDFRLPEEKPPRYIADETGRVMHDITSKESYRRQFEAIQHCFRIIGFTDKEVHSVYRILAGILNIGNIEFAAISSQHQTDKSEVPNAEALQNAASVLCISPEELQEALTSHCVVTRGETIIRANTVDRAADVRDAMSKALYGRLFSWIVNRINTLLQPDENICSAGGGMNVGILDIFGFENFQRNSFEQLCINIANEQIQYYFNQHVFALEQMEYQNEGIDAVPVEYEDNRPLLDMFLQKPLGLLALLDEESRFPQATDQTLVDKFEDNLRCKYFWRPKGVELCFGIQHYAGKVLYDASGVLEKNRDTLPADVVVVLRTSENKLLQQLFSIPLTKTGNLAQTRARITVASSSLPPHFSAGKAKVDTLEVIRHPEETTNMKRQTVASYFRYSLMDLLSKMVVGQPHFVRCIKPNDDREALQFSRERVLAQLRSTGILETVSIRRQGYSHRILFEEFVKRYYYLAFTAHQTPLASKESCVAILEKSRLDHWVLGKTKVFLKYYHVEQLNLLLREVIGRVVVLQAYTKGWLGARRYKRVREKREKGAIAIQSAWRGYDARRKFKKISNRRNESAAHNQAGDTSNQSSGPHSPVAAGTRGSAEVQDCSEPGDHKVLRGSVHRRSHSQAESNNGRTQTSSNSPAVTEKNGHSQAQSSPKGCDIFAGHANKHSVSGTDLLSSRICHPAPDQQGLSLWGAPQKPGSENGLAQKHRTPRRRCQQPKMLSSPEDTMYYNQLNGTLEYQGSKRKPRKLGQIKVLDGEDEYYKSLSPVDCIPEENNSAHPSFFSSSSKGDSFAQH

[3] = biological target: T2, Serine/threonine-protein kinase BRSK1 (Homo sapiens, UniProt Q8TDC3)
T2 sequence (Q8TDC3 whole entry): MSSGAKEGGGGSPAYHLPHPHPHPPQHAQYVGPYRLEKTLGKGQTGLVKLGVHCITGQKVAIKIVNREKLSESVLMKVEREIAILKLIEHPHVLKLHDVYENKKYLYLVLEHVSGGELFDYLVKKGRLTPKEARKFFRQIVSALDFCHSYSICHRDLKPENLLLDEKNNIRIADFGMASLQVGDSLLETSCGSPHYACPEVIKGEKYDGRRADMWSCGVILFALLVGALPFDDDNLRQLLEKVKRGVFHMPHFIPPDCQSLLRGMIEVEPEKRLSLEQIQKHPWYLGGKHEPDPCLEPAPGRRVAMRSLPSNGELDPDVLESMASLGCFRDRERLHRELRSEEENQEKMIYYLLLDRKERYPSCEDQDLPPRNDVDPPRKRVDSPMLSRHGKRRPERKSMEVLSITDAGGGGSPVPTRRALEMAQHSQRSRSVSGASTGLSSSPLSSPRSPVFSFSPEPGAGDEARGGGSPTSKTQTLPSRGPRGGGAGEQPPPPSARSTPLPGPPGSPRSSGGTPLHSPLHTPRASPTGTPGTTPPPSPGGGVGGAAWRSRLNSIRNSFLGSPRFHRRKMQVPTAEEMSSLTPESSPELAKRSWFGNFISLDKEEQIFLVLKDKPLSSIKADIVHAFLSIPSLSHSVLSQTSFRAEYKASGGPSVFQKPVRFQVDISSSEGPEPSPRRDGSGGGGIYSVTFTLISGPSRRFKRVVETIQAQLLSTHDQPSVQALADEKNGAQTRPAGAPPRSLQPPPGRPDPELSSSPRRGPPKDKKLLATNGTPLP

[4] = biological target: Tyrosine-protein kinase Yes (Homo sapiens, UniProt P07947)
[5] = biological target: Ribosomal protein S6 kinase alpha-6 (Homo sapiens, UniProt Q9UK32)
[6] = biological target: Serine/threonine-protein kinase pim-2 (Homo sapiens, UniProt Q9P1W9)
[7] = biological target: Serine/threonine-protein kinase 16 (Homo sapiens, UniProt O75716)
[8] = biological target: Receptor-type tyrosine-protein kinase FLT3 (Homo sapiens, UniProt P36888, D835H)
[9] = biological target: Protein kinase C delta type (Homo sapiens, UniProt Q05655)
[10] = biological target: Epidermal growth factor receptor (Homo sapiens, UniProt P00533, L747-S752DEL/P753S)
[11] = biological target: Epidermal growth factor receptor (Homo sapiens, UniProt P00533, E746-A750DEL)
[12] = biological target: Epidermal growth factor receptor (Homo sapiens, UniProt P00533, G719C)
[13] = biological target: Epidermal growth factor receptor (Homo sapiens, UniProt P00533, S752-I759DEL)
[14] = biological target: Epidermal growth factor receptor (Homo sapiens, UniProt P00533, L861Q)
[15] = biological target: Epidermal growth factor receptor (Homo sapiens, UniProt P00533)
[16] = biological target: Epidermal growth factor receptor (Homo sapiens, UniProt P00533, L858R)

| Compound | Kd [1] [µM] | Kd [2] [µM] | Kd (Myosin-IIIb) [µM] | Kd [3] [µM] | Kd [4] [µM] | Kd [5] [µM] | Kd [6] [µM] | Kd [7] [µM] | Kd [8] [µM] | Kd [9] [µM] | Kd [10] [µM] | Kd [11] [µM] | Kd [12] [µM] | Kd [13] [µM] | Kd [14] [µM] | Kd [15] [µM] | Kd [16] [µM] |
| --- | --- | --- | --- | --- | --- | --- | --- | --- | --- | --- | --- | --- | --- | --- | --- | --- | --- |
| CCOc1cc2ncc(C#N)c(Nc3ccc(F)c(Cl)c3)c2cc1NC(=O)/C=C/CN(C)C [PELITINIB] | > 10 | > 10 | > 10 | > 10 | 1.1 | > 10 | > 10 | > 10 |  |  |  |  |  |  |  |  |  |
| COCC(=O)NC/C=C/c1ccc2ncnc(Nc3ccc(Oc4ccc(C)nc4)c(C)c3)c2c1 [CP-724714] | > 10 | > 10 | > 10 | > 10 | > 10 | > 10 | > 10 | > 10 | > 10 | > 10 |  |  |  |  |  |  |  |
| NC(=O)c1ccc(-c2nc(-c3ccc4c(c3)OCO4)c(-c3ccccn3)[nH]2)cc1 [SB-431542] | > 10 |  | > 10 | > 10 | > 10 |  | > 10 | > 10 |  | > 10 | > 10 | > 10 | > 10 | > 10 | > 10 | > 10 | > 10 |
| Nc1nc(Nc2ccc(S(N)(=O)=O)cc2)nn1C(=O)c1c(F)cccc1F [JNJ-7706621] |  |  | > 10 |  | > 10 |  | > 10 |  |  | 4.5 | > 10 | > 10 | > 10 | > 10 | > 10 | > 10 | > 10 |
| Oc1ccc(-c2nc(-c3ccncc3)c(-c3ccc(F)cc3)[nH]2)cc1 [SB-202190] | > 10 |  | > 10 | > 10 | > 10 | > 10 | > 10 | > 10 | > 10 | > 10 |  |  |  |  |  |  |  |
